The pKi is the Ki on a negative log10 scale, so that one unit is a factor of ten.

We go through 25 compounds from patent publication US8288552B2, “Dihydropyridone amidesas P2X7 modulators” (Roche Palo Alto LLC, priority 2008, dated 2012).

This assay deals with T1, P2X7 (UniProt Q99572).
T1 sequence (Q99572 1-595): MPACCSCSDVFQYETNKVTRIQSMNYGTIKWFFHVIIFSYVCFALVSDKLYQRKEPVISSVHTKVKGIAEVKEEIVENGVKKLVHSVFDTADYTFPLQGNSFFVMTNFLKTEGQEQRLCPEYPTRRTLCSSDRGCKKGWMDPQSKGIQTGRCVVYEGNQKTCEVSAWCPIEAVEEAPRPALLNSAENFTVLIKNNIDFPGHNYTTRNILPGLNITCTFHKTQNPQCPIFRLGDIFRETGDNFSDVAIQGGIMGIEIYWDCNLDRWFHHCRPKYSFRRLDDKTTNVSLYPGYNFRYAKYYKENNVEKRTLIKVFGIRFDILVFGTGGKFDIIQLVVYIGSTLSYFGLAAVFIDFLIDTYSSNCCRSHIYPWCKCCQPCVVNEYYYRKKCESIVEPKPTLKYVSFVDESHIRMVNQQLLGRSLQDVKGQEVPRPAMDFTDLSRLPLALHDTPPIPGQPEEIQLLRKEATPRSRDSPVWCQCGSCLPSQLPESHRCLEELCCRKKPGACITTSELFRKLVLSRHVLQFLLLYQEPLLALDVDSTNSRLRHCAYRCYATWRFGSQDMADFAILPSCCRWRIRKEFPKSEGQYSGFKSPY
Briefly: P2X7 pKi of Table 1. It counts as cell-based. The procedure: Intracellular Calcium Flux (FLIPR) Assay
Compound and Reagent Preparation
Stock solutions of compounds were prepared from powders as a 10 mM DMSO stock solution. These solutions were stored at RT during the two week period of these experiments to prevent freeze-thaw of the DMSO stocks. The DMSO stocks were added to the appropriate assay buffer at a concentration of 10 μM, and then diluted serially to the final concentrations that were tested. […] The aqueous solutions of compounds as well as ATP (Sigma A7699) and BzATP (Sigma B6396) were prepared fresh for each day of experiment.
1321N1 cells stably expressing the full length human P2X7 gene (1321N1-hP2X7) and HEK293 cells stably expressing the full length rat P2X7 gene (HEK293-rP2X7) were obtained from the Roche Cell Culture Facility. 1321N1-hP2X7 cells were grown in Dulbecco's Modified Eagle's Medium (DMEM) high glucose supplemented with 10% FBS and 250 μg/mL G418. HEK293-rP2X7 cells were grown in DMEM/F-12 supplemented with 10% FBS, 1 mM CaCl2, 2 mM MgCl2, 2 mM L-Glutamine and 500 μg/ml G418. Cells were split such that they never became >70% confluent.
Intracellular Calcium Flux (FLIPR)
On the day prior to the experiment, 1321N1-hP2X7 or HEK293-rP2X7 cells were released into suspension with calcium-free PBS+Versene and washed by centrifugation with calcium-free PBS to remove the Versene. Cells were resuspended in growth medium at a density of 2.5×10^5 cells/mL and seeded into black walled, clear bottom 96 well plates (50,000 cells/well) approximately 18 hr prior to intracellular calcium flux experiments.
On the day of the experiment, plates were washed with FLIPR buffer (calcium- and magnesium-free Hank's Balanced Salt Solution (HBSS) supplemented with 10 mM Hepes, 2.5 mM probenecid and 2 mM calcium chloride) using a BIO-TEK 96 channel plate washer and incubated with […] fluo-3 dye at 37° C. for one hr. The dye was then removed by plate washing and the cells were allowed to equilibrate for 20 min at room temperature with antagonist or vehicle (FLIPR buffer). Agonist (100 μM BzATP final concentration for hP2X7; 5 μM BzATP final concentration or rP2X7) was added online with the FLIPR and fluorescence measurements made at 1 sec intervals for 60 sec followed by 3 sec intervals for a further 4 min (5 min total). A final addition of 5 μM ionomycin was made and the maximal BzATP-evoked fluorescence normalized to the maximal ionomycin-evoked fluorescence.
Consider `Cc1cc(Cl)c(OCCO)cc1NC(=O)C1=CNC(=O)C[C@H]1c1cccc(F)c1` [Compound 72, (S)-4-(3-Fluoro-phenyl)-6-oxo-1,4,5,6-tetrahydro-pyridine-3-carboxylic acid[4-chloro-5-(2-hydroxy-ethoxy)-2-methyl-phenyl]-amide], for which the negative logarithm of the Ki (pKi) was 7.8375.
For `COc1cc(Br)c(NC(=O)C2=CNC(=O)CC2c2cccc(F)c2)cc1OC` (stereo not shown) [Compound 17, 4-(3-Fluoro-phenyl)-6-oxo-1,4,5,6-tetrahydro-pyridine-3-carboxylic acid(2-bromo-4,5-dimethoxy-phenyl)-amide], the pKi came to 6.77.
To `COc1ccc(Br)c(NC(=O)C2=CNC(=O)CC2c2ccc(F)cc2)c1` (stereo not shown) [Compound 18, 4-(4-Fluoro-phenyl)-6-oxo-1,4,5,6-tetrahydro-pyridine-3-carboxylic acid(2-bromo-5-methoxy-phenyl)-amide] belongs 6.08.
Compound `O=C1C[C@@H](c2cccc(F)c2)C(C(=O)Nc2cc(OCCO)c(Cl)cc2Br)=CN1` [Compound 78, (S)-4-(3-Fluoro-phenyl)-6-oxo-1,4,5,6-tetrahydro-pyridine-3-carboxylic acid[2-bromo-4-chloro-5-(2-hydroxy-ethoxy)-phenyl]-amide] had a pKi of 7.695.
Then `COc1ccc(NC(=O)C2=CNC(=O)C[C@H]2c2ccc(F)cc2)c(C)c1` [Compound 111, (S)-4-(4-Fluoro-phenyl)-6-oxo-1,4,5,6-tetrahydro-pyridine-3-carboxylic acid(4-methoxy-2-methyl-phenyl)-amide], with 6.5; and `CCc1cc(Cl)c(OCCO)cc1NC(=O)C1=CNC(=O)C[C@H]1c1ccc(F)cc1` [Compound 123, (S)-4-(4-Fluoro-phenyl)-6-oxo-1,4,5,6-tetrahydro-pyridine-3-carboxylic acid[4-chloro-2-ethyl-5-(2-hydroxy-ethoxy)-phenyl]-amide], with 7.293; and `COc1cc(Br)c(NC(=O)C2=CNC(=O)CC2c2ccccc2)cc1OC` (stereo not shown) [Compound 1, 6-Oxo-4-phenyl-1,4,5,6-tetrahydro-pyridine-3-carboxylic acid(2-bromo-4,5-dimethoxy-phenyl)-amide], with 7.4925.
To `COC[C@@H](O)COc1cc(NC(=O)C2=CN(C)C(=O)C[C@H]2c2cccc(F)c2)c(C)cc1Cl` [Compound 149, (S)-4-(3-Fluoro-phenyl)-1-methyl-6-oxo-1,4,5,6-tetrahydro-pyridine-3-carboxylic acid[4-chloro-5-((S)-2-hydroxy-3-methoxy-propoxy)-2-methyl-phenyl]-amide] belongs 6.035; to `Cc1ccc(Br)c(NC(=O)C2=CNC(=O)CC2c2ccc(F)cc2)c1` (stereo not shown) [Compound 38, 4-(4-Fluoro-phenyl)-6-oxo-1,4,5,6-tetrahydro-pyridine-3-carboxylic acid(2-bromo-5-methyl-phenyl)-amide], 6.87; to `COc1cc(C)c(NC(=O)C2=CNC(=O)CC2c2cccc(F)c2)cc1OC` (stereo not shown) [Compound 24, 4-(3-Fluoro-phenyl)-6-oxo-1,4,5,6-tetrahydro-pyridine-3-carboxylic acid(4,5-dimethoxy-2-methyl-phenyl)-amide], 7.69.
Compound `Cc1ccc(C(N)=O)cc1NC(=O)C1=CNC(=O)C[C@H]1c1ccc(F)cc1` [Compound 135, (S)-4-(4-Fluoro-phenyl)-6-oxo-1,4,5,6-tetrahydro-pyridine-3-carboxylic acid(5-carbamoyl-2-methyl-phenyl)-amide] showed a pKi of 5.8767.
Then `COc1cc(NC(=O)C2=CNC(=O)CC2c2ccccc2)c(Br)cc1C` (stereo not shown) [Compound 2, 6-Oxo-4-phenyl-1,4,5,6-tetrahydro-pyridine-3-carboxylic acid(2-bromo-5-methoxy-4-methyl-phenyl)-amide], with 6.595; and `CCc1c(NC(=O)C2=CNC(=O)CC2c2ccc(F)cc2)cccc1OC` (stereo not shown) [Compound 102, 4-(4-Fluoro-phenyl)-6-oxo-1,4,5,6-tetrahydro-pyridine-3-carboxylic acid(2-ethyl-3-methoxy-phenyl)-amide], with 7.316; and `COC(=O)c1cc(Br)c(NC(=O)C2=CNC(=O)CC2c2cccc(F)c2)cc1OC` (stereo not shown) [Compound 23, 5-Bromo-4-{[4-(3-fluoro-phenyl)-6-oxo-1,4,5,6-tetrahydro-pyridine-3-carbonyl]-amino}-2-methoxy-benzoic acid methyl ester], with 5.92.
To `O=C1CC(c2cccc(F)c2)C(C(=O)Nc2cc(Cl)ccc2OC(F)F)=CN1` (stereo not shown) [Compound 27, 4-(3-Fluoro-phenyl)-6-oxo-1,4,5,6-tetrahydro-pyridine-3-carboxylic acid(5-chloro-2-difluoromethoxy-phenyl)-amide] belongs 5.18; to `COc1cc(C)c(NC(=O)C2=CNC(=O)CC2c2ccc(F)cc2)cc1OC` (stereo not shown) [Compound 32, 4-(4-Fluoro-phenyl)-6-oxo-1,4,5,6-tetrahydro-pyridine-3-carboxylic acid(4,5-dimethoxy-2-methyl-phenyl)-amide], 7.98; to `COc1cc(Br)c(NC(=O)C2=CNC(=O)CC2c2ccc(F)cc2)cc1OC` (stereo not shown) [Compound 7, 4-(4-Fluoro-phenyl)-6-oxo-1,4,5,6-tetrahydro-pyridine-3-carboxylic acid(2-bromo-4,5-dimethoxy-phenyl)-amide], 7.463.
Then `CC(=O)c1ccc(C)c(NC(=O)C2=CNC(=O)C[C@H]2c2ccc(F)cc2)c1` [Compound 93, (S)-4-(4-Fluoro-phenyl)-6-oxo-1,4,5,6-tetrahydro-pyridine-3-carboxylic acid(5-acetyl-2-methyl-phenyl)-amide], with 6.86.
`CNC(=O)COc1cc(NC(=O)C2=CNC(=O)C[C@H]2c2ccc(F)cc2)c(C)cc1Cl` [Compound 134, (S)-4-(4-Fluoro-phenyl)-6-oxo-1,4,5,6-tetrahydro-pyridine-3-carboxylic acid(4-chloro-2-methyl-5-methylcarbamoylmethoxy-phenyl)-amide]: the pKi is given as 6.24.
Then `COc1cc(NC(=O)C2=CNC(=O)CC2c2ccccc2)c(Br)cc1Cl` (stereo not shown) [Compound 3, 6-Oxo-4-phenyl-1,4,5,6-tetrahydro-pyridine-3-carboxylic acid(2-bromo-4-chloro-5-methoxy-phenyl)-], with 5.95.
Then `Cc1cc(F)c(OCCO)cc1NC(=O)C1=CNC(=O)C[C@H]1c1ccc(F)cc1` [Compound 141, (S)-4-(4-Fluoro-phenyl)-6-oxo-1,4,5,6-tetrahydro-pyridine-3-carboxylic acid[4-fluoro-5-(2-hydroxy-ethoxy)-2-methyl-phenyl]-amide], with 7.285; and `O=C1C[C@@H](c2ccc(F)cc2)C(C(=O)Nc2cc(OCCO)c(Cl)cc2Br)=CN1` [Compound 76, (S)-4-(4-Fluoro-phenyl)-6-oxo-1,4,5,6-tetrahydro-pyridine-3-carboxylic acid[2-bromo-4-chloro-5-(2-hydroxy-ethoxy)-phenyl]-amide], with 7.063; and `COc1cc(NC(=O)C2=CNC(=O)C[C@H]2c2cccc(F)c2)c(Br)cc1C` [Compound 33, (S)-4-(3-Fluoro-phenyl)-6-oxo-1,4,5,6-tetrahydro-pyridine-3-carboxylic acid(2-bromo-5-methoxy-4-methyl-phenyl)-amide], with 7.195.
With `O=C1CC(c2cccc(F)c2)C(C(=O)Nc2cccc3c2CCC3)=CN1` (stereo not shown) [Compound 66, 4-(3-Fluoro-phenyl)-6-oxo-1,4,5,6-tetrahydro-pyridine-3-carboxylic acid indan-4-ylamide], the pKi turned out to be 6.915.
To `COc1cc(NC(=O)C2=CNC(=O)CC2c2cccc(F)c2)c(Cl)cc1Cl` (stereo not shown) [Compound 22, 4-(3-Fluoro-phenyl)-6-oxo-1,4,5,6-tetrahydro-pyridine-3-carboxylic acid(2,4-dichloro-5-methoxy-phenyl)-amide] belongs 6.12.
